Experimental data taken from patent US20240336638A1, “IMIDAZOLE COMPOUND, AND INTERMEDIATE AND APPLICATION THEREOF” (priority 2021, published 2024).

Assays:
[1] = test system: AA-induced platelet aggregation; experiment: Inhibitory effect on AA-induced platelet aggregation in rats in vitro (washed platelets); type: cell-based, rat; settings: 1*10^−4 M
Protocol: Several experimental groups were established, including a blank control group, an AA (arachidonic acid) model control group, and various test compounds. Each test compound had three concentration groups: 10^−3 M, 10^−4 M, and 10^−5 M. The data from the blank and model control group were shared among the different drug concentration groups as a control.
(§1) Male SD rats were anesthetized with 3% chloral hydrate (300 mg/kg) through intraperitoneal injection. After being fixed in a supine position, the skin of the neck was cut about 3 cm, bluntly separated with a hemostat, and the trachea was exposed after the common carotid artery was separated. The distal end of the common carotid artery was ligated with a fine thread, and the proximal end was clamped with an arterial clamp for vascular intubation. After the intubation was fixed, the artery clamp was opened, and the blood was placed into a blood collection tube containing 3.8% trisodium citrate so that the blood was mixed well with the 3.8% trisodium citrate in a volume ratio of 9:1.
The prepared anticoagulant blood was mixed well and centrifuged for 10 minutes at 500 rpm, then the upper layer of plasma was aspirated to obtain platelet-rich plasma (PRP), and the PRP was centrifuged again for 5 minutes at 3,000 rpm. The supernatant was discarded, and the platelet precipitate was obtained, which was washed once with Ca^2+-free HEPES-Tyrode's buffer, then centrifuged at 3,000 rpm for 5 minutes. The supernatant was discarded, and the platelets were resuspended with Ca^2+-free HEPES-Tyrode's buffer to obtain the washed platelets.
First, 300 μL of Ca^2+-containing HEPES-Tyrode's solution was taken into the test cup, put into the test wells, and calibrated by pressing the “PPP” key. Subsequently, 240 μL of the washed platelets were added to the test cup, then added with 30 μL of different concentrations of drug solution, incubated for 10 minutes at 37° C. in a preheated bath, and then put into the test wells. 3 μL of 100× CaCl2 solution (final concentration of 0.2 g/L) and 30 μL of inducer (final concentration of AA of 800 μM) were added to the test wells, and then the “Start” key was pressed immediately. The maximum aggregation rate was recorded every 60 s. The measurement was repeated three times for each concentration for 10 minutes, and the aggregation curve was plotted.
The platelet aggregation inhibition rate was calculated with the following formula:
Inhibition rate (%)=(maximum aggregation rate in the model control group−maximum aggregation rate in the administration group)/maximum aggregation rate in the model control group×100%
All data were expressed as mean±standard deviation (mean±SD). SPSS 22.0 software was used for statistical analysis of the data. Intergroup data were analyzed using one-way ANOVA, with P<0.05 considered as statistically significant and P<0.01 considered as highly significant.

MCAO/R rats = experiment: Therapeutic administration (i.v.) in middle cerebral artery occlusion/reperfusion (MCAO/R) rats; type: in vivo, rat; settings: for Bleeding time / Brain water content (%) / Cerebral infarction rate (%) / Clotting time / Neurological function score: once a day for 3 days, mean ± SD, n = 8; for Neurological function score: modified Bederson score
Protocol: Male SD rats weighing 250 to 300 g were taken, and the rats in each group fasted for 12 hours before modeling, while water was not restricted. According to the method of Longa et al.^[1], a rat model of MCAO/R was established by occluding the blood flow of internal carotid artery using the thread embolization method. The rats were anesthetized with 3% chloral hydrate (300 mg/kg, 1 mL/100 g body weight) through intraperitoneal injection and fixed in the supine position on the operating table. A midline incision was made in the neck, and the right common carotid artery was isolated using forceps and threaded for later use. The external and internal carotid arteries were isolated from the bifurcation of the common carotid artery. A single thread was threaded through the internal carotid artery, and two threads were threaded through the external carotid artery. Both distal and proximal ends were ligated, and the middle part of the ligation site was cut using ophthalmic scissors. The proximal main trunk of the external carotid artery was isolated and reserved for later use. The prepared cotton thread was used to half-ligate the common carotid artery (tying a slipknot), and the thread prepared for the internal carotid artery was tightened with hemostatic forceps, temporarily occluding the blood flow of the internal carotid artery. A small incision at the proximal main trunk of the external carotid artery was made using ophthalmic scissors, and then, the fishing line was held with straight forceps, inserted from this incision, and slowly advanced through the isolated proximal main trunk of the external carotid artery towards the intracranial direction of the internal carotid artery. The advancement was stopped at a predetermined position, and then the thread of the internal carotid artery that was tightened with the hemostatic forceps was loosened. […] Another thread was threaded and tightened around the proximal main trunk of the external carotid artery and the fishing line that had already been inserted into the predetermined position. The half-ligated thread on the common carotid artery was then loosened, and the skin was subsequently sutured. After 2 hours of ischemia, a small section of the fishing line was pulled out. […] After rats in the blank control group were anesthetized, only the bifurcation of the internal and external carotid arteries was exposed without the occlusion of the MCA.
Successfully modeled rats (neurological function score of 3 after reperfusion) were taken and divided into 20 groups (8 rats for each) according to the random number table method. The groups were divided into a model control group, three dose groups (high, 12 mg/kg, 2.4 mg/mL; medium, 6 mg/kg, 1.2 mg/mL; low, 3 mg/kg, 0.6 mg/mL) for each of the six test compounds, and a positive drug Ozagrel group (6 mg/kg, 1.2 mg/mL), respectively. Both blank and model control groups were administered equal volumes of mixed solvents, and the rats in each group were administered by tail vein injection (i.v.) 2 hours after reperfusion, once a day for 3 consecutive days, with a volume of 0.5 mL/100 g body weight.
Ten minutes after the last administration, the neurological function of the animals was graded according to the modified Bederson scoring method. The standard is as follows[2]: • 0 point: no neurological symptoms; • 1 point: when the rat is suspended by lifting its tail, the forelimb on the surgical side of the rat was flexed and pressed against the chest wall; • 2 points: on a smooth plane, when the rat is pushed from the surgical side to the opposite side, the resistance is less than when it is moved to the same side; • 3 points: the animal moves around or in circles when moving freely; • 4 points: flaccid paralysis, no spontaneous movement of limbs.
After Bederson scoring, the rats were executed by cervical dislocation, and the whole brain was removed and weighed. After weighing, the whole brain was placed in a −20° C. refrigerator for 20 minutes. […]

[2] = test system: AA-induced platelet aggregation; experiment: Inhibitory effect on AA-induced platelet aggregation in rabbits in vitro; type: cell-based, rabbit; settings: 1*10^−4 M; text conclusion (2)
Protocol: Several experimental groups were established, including a blank control group, an AA model control group, and various test compounds. Each test compound had three concentration groups: 10^−3 M, 10^−4 M, and 10^−5 M.
as §1, with “Rabbits were” for “Male SD rats were”, “with a 20% urethane solution (5 mL/kg body weight)” for “with 3% chloral hydrate (300 mg/kg)”, “about 6” for “about 3”, “9:1. […]” for “9:1.”
First, 300 μL of PPP was added to the test cup and put into the test wells, and calibrated by pressing the “PPP” key. […] The maximum aggregation rate within 4 minutes was measured. […]
The platelet aggregation inhibition rate was calculated with the following formula: […]
All data were expressed as mean standard deviation (mean b SD). […] Intergroup data were analyzed using one-way ANOVA, with P<0.05 considered as statistically significant and P<0.01 considered as highly significant.

[3] = medium dose 6 mg/kg i.v. (Ozagrel group 6 mg/kg)

Compound	significant inhibition of AA-induced platelet aggregation [1]	Bleeding time (MCAO/R rats; high dose 12 mg/kg i.v.) [s]	Brain water content (%) (MCAO/R rats; high dose 12 mg/kg i.v.)	Cerebral infarction rate (%) (MCAO/R rats; high dose 12 mg/kg i.v.)	Clotting time (MCAO/R rats; high dose 12 mg/kg i.v.) [s]	Neurological function score (MCAO/R rats; high dose 12 mg/kg i.v.)	infarct size (MCAO/R rats; low dose)	Bleeding time (MCAO/R rats; low dose 3 mg/kg i.v.) [s]	Brain water content (%) (MCAO/R rats; low dose 3 mg/kg i.v.)	Cerebral infarction rate (%) (MCAO/R rats; low dose 3 mg/kg i.v.)	Clotting time (MCAO/R rats; low dose 3 mg/kg i.v.) [s]	Neurological function score (MCAO/R rats; low dose 3 mg/kg i.v.)	coagulation time of rats (MCAO/R rats; medium and high doses)	Bleeding time (MCAO/R rats; [3]) [s]	Brain water content (%) (MCAO/R rats; [3])	Cerebral infarction rate (%) (MCAO/R rats; [3])	Clotting time (MCAO/R rats; [3]) [s]	Neurological function score (MCAO/R rats; [3])	significant inhibition of AA-induced platelet aggregation [2]
O=C(O)[C@@H]1C[C@H]1c1ccc(Cn2cnc(Cl)c2)cc1F [Compound 13, (1R,2R)-2-(4-((4-Chloro-1H-imidazol-1-yl)methyl)-2-fluorophenyl)cyclopropane-1-carboxylic acid]	can significantly inhibit	301.25 ± 46.40	80.73 ± 1.10	14.30	163.63	1.50 ± 0.53	can also significantly reduce	303.00 ± 39.59	80.87 ± 2.84	23.02	146.94 ± 24.73	2.00 ± 0.53	can significantly prolong	314.50 ± 41.83	80.58 ± 1.56	22.15	164.56	1.88 ± 0.64	–
O=C(O)C1CN(c2ccc(Cn3ccnc3)nc2)C1 [Compound 56, 1-(6-((1H-Imidazol-1-yl)methyl)pyridin-3-yl)azetidine-3-carboxylic acid]	–	–	–	–	–	–	–	–	–	–	–	–	–	–	–	–	–	–	can significantly inhibit
O=C(O)/C=C/c1ccc(Cn2cnc(Cl)c2)cn1 [Compound 59, (E)-3-(5-((4-Chloro-1H-imidazol-1-yl)methyl)pyridin-2-yl)acrylic acid]	–	–	–	–	–	–	–	–	–	–	–	–	–	–	–	–	–	–	can significantly inhibit
